According to patent publication US12616203B2, “Use of 3-isoxazolidinones compounds as selective herbicides” (FMC Corporation, priority 2014, dated 2026):

Tests used:
Wild buckwheat = experiment: Ex15 PRE 2,4-DC + S-metolachlor, % control 28 DAT, Colby; assay type: in vivo, Polygonum convolvulus
Source text: (§1) The weeds tested in this study were redroot pigweed (Amaranthus retroflexus, AMARE), Jimsonweed (Datura stramonium, DATST), black nightshade (Solanum nigrum, SOLNI), large crabgrass (Digitaria sanguinalis, DIGSA), Pennsylvania smartweed (Polygonum pensylvanicum, POLPY), horseweed (Conyza canadensis, ERICA), wild buckwheat (Polygonum convolvulus, POLCO). The crop tested was Corn (var. Viking).
(§2) To determine PRE efficacy and corn injury, five rates of each 2,4 DC (36.7% CS) and S-metolachlor (Dual II Magnum®, 82.4%) were applied either alone or as tank-mix. 2,4 DC was applied at 0, 125, 170, 210, or 250 g ai/ha and S-metolachlor was applied at 0, 267, 534, 801, or 1070 g ai/ha. Additional treatments included application of premix of pyroxasulfone plus fluthiacet-methyl (Anthem™ 23.3%) at 169.9 g ai/ha and tank-mix of mesotrione (Callisto®, 40%) at 123 g plus S-metolachlor at 1252 g. Treatments were applied just after the planting of large crabgrass, Jimsonweed, black nightshade, redroot pigweed, Pennsylvania smartweed, horseweed, wild buckwheat, and corn.
(§3) Flats were watered and fertilized routinely after treatment application. Each treatment was replicated three times. […] Corn injury was rated for bleaching and stunting.

[1] = system: weeds; corn, wheat, cotton, cowpea, and bush bean; experiment: Ex42 PRE greenhouse; assay type: in vivo; settings: crop and rate in the words
Source text: (§4) Thereafter flats were watered and fertilized routinely.

Pennsylvania smartweed = experiment: Ex33 PRE 2,4-DC + fluthiacet-methyl + pyroxasulfone, % control 28 DAT, Colby; assay type: in vivo, Polygonum pensylvanicum
Source text: (§5) ANTHEM® (fluthiacet-methyl, 0.69% plus pyroxasulfone, 22.61%) was included as a standard at labeled rate, Fluthiacet-methyl at 4.9 g ai/ha and pyroxasulfone at 165 g ai/ha. […] The following weeds were screened, Palmer amaranth, Pennsylvania smartweed, velvetleaf, green foxtail, morningglory, Italian ryegrass, prickly sida, and yellow nutsedge. Crops screened were cotton, lentil, mung bean, bush bean, and cowpea. […] Thereafter flats were watered and fertilized routinely.

weeds [2] = experiment: Ex22 PRE greenhouse; assay type: in vivo; settings: 28 DAT, weed and rate in the words
Source text: 2,4 DC (36.7% CS) was applied PRE at 0, 125, 170, 210, or 250 g ai/ha alone or as a tank-mix with S-metolachlor (Dual II Magnum®, 82.4%) at 0, 267, 534, 801, or 1070 g ai/ha. Pyroxasulfone plus fluthiacet-methyl (Anthem™, 23.3%) applied at 169.9 g ai/ha, and the tank-mix of mesotrione (Callisto®, 40%) at 123 g plus S-metolachlor (Dual II Magnum®, 82.4%) at 1252 g were included as a standards for comparison.
Thereafter flats were watered and fertilized routinely. Each treatment was replicated three times.

weeds [3] = experiment: Ex20 PRE greenhouse; assay type: in vivo; settings: weed and rate in the words
Source text: Herbicides: • 2,4 DC-21 (36.7% CS): 125, 170, 210, or 250 g ai/ha alone and as tank-mix with dimethenamid-P • Dimethanamid-P (Outlook, 63.9%): 250, 375, 500 g ai/ha in combination with 2,4 DC and alone, additional treatment alone at 750 g ai/ha. • Metazachlor (Butisan 43.1%): 500 g ai/ha
Herbicides included as standards for comparison were metazachlor plus dimethenamid-P (500 g) as tank mix combination. […] Treatments were replicated 3 times. […] Thereafter flats were watered and fertilized routinely.

Common lambsquarters = experiment: Ex13 PRE 2,4-DC + diflufenican, % control 28 DAT, Colby; assay type: in vivo, Chenopodium album
Source text: (§6) Pyroxasulfone (KIH-485, 85%) at 74.3 g ai/ha, pendimethalin (Prowl 3.3EC, 37.4%) at 1200 g ai/ha, or a premix of chlorsulfuron plus metsulfuron-methyl (Report Extra, 75%) at 15.8 g ai/ha were applied as commercial standards. […] Treatments were replicated 3 times and flats were watered after planting before the treatment and lightly watered after treatment application. Thereafter flats were watered and fertilized routinely.

Littleseed canarygrass = experiment: Ex34 PRE 2,4-DC + napropamide, % control, Colby; assay type: in vivo, Phalaris minor; settings: 28 DAT
Source text: as §4

weeds; Wheat and Barley = experiment: Ex41 POST greenhouse; assay type: in vivo; settings: rate in the words
Experimental: Treatments were applied to wheat and barley crops.
Nonionic surfactant was added at 0.5% v/v in all treatments. Treatments were applied to wheat (5.5″), barley (5″), wild oat (5.5″), common chickweed (2″), wild buckwheat (3″), and common lambsquarters (2″). All plant species were direct seeded into 3″ plastic pots using metro-mix as growth media and pots were watered well before application and watered 24 h after application. Plants were watered and fertilized routinely after treatment application. Each treatment was replicated four times.

Annual bluegrass = experiment: Ex34 PRE 2,4-DC + napropamide, % control, Colby; assay type: in vivo, Poa annua; settings: 28 DAT
Source text: as §4

weeds; Corn = experiment: Ex25 PRE greenhouse; assay type: in vivo; settings: rate in the words
Source text: The crop tested in this study was Corn.
2,4 DC-21 (36.7% CS) was applied PRE at 0, 125, 170, 210, or 250 g ai/ha alone or as a tank-mix with pyroxasulfone (KIH-485, 85% WP) at 0, 50, 65, 80, or 95 g ai/ha. Pyroxasulfone plus fluthiacet-methyl (Anthem™, 23.3%) applied at 169.9 g ai/ha, s-metolachlor (Dual II Magnum®, 82.4%) applied at 1389 g, and the tank-mix of mesotrione (Callisto®, 40%) at 123 g plus s-metolachlor (Dual II Magnum®, 82.4%) at 1252 g were included as a standards for comparison. […] Thereafter flats were watered and fertilized routinely.

[4] = system: weeds; Corn (var. Viking); experiment: Ex15 PRE greenhouse; assay type: in vivo; settings: rate in the words
Source text: as §1, §2, §3

Blackgrass = experiment: Ex13 PRE 2,4-DC + diflufenican, % control 28 DAT, Colby; assay type: in vivo, Alopecurus myosuroides
Source text: as §6

[5] = system: weeds; cotton, lentil, mung bean, bush bean, and cowpea; experiment: Ex33 PRE greenhouse; assay type: in vivo; settings: rate in the words
Source text: as §5

## CC1(C)CON(Cc2ccc(Cl)cc2Cl)C1=O [2,4-DC, 2-(2,4-dichlorophenyl)methyl-4,4-dimethyl-3-isoxazolidinone]
Wild buckwheat; 2,4-DC alone 125 g ai/ha
  X: 15%
Wild buckwheat; 2,4-DC alone 170 g ai/ha
  X: 43%
Wild buckwheat; 2,4-DC alone 210 g ai/ha
  X: 30%
Wild buckwheat; 2,4-DC alone 250 g ai/ha
  X: 32%
[1]
  crop safety in words: applied alone was safe at all rates on all crops at 14 DAT
Pennsylvania smartweed; 2,4-DC alone 31 g ai/ha
  X: 10%
Pennsylvania smartweed; 2,4-DC alone 63 g ai/ha
  X: 23%
Pennsylvania smartweed; 2,4-DC alone 125 g ai/ha
  X: 57%
Pennsylvania smartweed; 2,4-DC alone 250 g ai/ha
  X: 100%
Pennsylvania smartweed; 2,4-DC alone 375 g ai/ha
  X: 99%
Weeds [2]
  weed control in words: applied alone controlled (≥85% injury) Johnsongrass at 210 g ai/ha, common lambsquarters at 250 g and goosegrass at all rates
Weeds [3]
  weed control in words: applied alone at 125 g ai/ha controlled (≥85% injury) Canada thistle, giant foxtail, goosegrass, and common chickweed
Common lambsquarters; 2,4-DC alone 125 g ai/ha
  X: 15%
Common lambsquarters; 2,4-DC alone 170 g ai/ha
  X: 26%
Common lambsquarters; 2,4-DC alone 210 g ai/ha
  X: 58%
Common lambsquarters; 2,4-DC alone 250 g ai/ha
  X: 60%
Littleseed canarygrass; 2,4-DC alone 31 g ai/ha
  X: 8%
Littleseed canarygrass; 2,4-DC alone 63 g ai/ha
  X: 12%
Littleseed canarygrass; 2,4-DC alone 125 g ai/ha
  X: 18%
Littleseed canarygrass; 2,4-DC alone 250 g ai/ha
  X: 27%
Littleseed canarygrass; 2,4-DC alone 375 g ai/ha
  X: 53%
weeds; Wheat and Barley
  weed control / crop safety in words: Wheat was safe with 2,4-DC alone up to 170 g ai/ha, barley was not safe with any rate of 2,4-DC alone
Annual bluegrass; 2,4-DC alone 31 g ai/ha
  X: 0%
Annual bluegrass; 2,4-DC alone 63 g ai/ha
  X: 2%
Annual bluegrass; 2,4-DC alone 125 g ai/ha
  X: 12%
Annual bluegrass; 2,4-DC alone 250 g ai/ha
  X: 40%
Annual bluegrass; 2,4-DC alone 375 g ai/ha
  X: 63%
weeds; Corn
  weed control / crop safety in words: applied alone controlled (≥85% injury) black nightshade at 170 g ai/ha, did not provide control of other weeds tested when applied alone at any rate, and was safe on corn at all rates
[4]
  weed control / crop safety in words: alone controlled large crabgrass at 170 g ai/ha or 250 g and it was safe on corn at all rate
Blackgrass; 2,4-DC alone 125 g ai/ha
  X: 23%
Blackgrass; 2,4-DC alone 170 g ai/ha
  X: 53%
Blackgrass; 2,4-DC alone 210 g ai/ha
  X: 66%
Blackgrass; 2,4-DC alone 250 g ai/ha
  X: 68%
[5]
  weed control / crop safety in words: controlled prickly sida, at 125 g controlled green foxtail
[5]; listed as 2, 4 DC
  weed control / crop safety in words: applied alone PRE was safe on cotton, mung bean, bush bean, and cowpea at all rates, lentil was not safe at any rate
